Measured values reported in the supplement of paper PMC8882468.
Values joined by “and” are separate entries in the source; they are usually repeats but may differ in a detail not shown here. Identical values can stand only once.

What was measured:
Assay in all cases: CTG-3D luminescence at 96 h relative to day-0 seeding control (ratio to day 0); higher = more growth / less cytotoxicity; PDxO 3D drug screen (set 2), 96 h, CTG-3D normalised to day-0 seeding control.
HCI-001 = test system: HCI-001 (organoid from a triple-negative breast cancer xenograft)
HCI-008 = test system: HCI-008 (organoid from a HER2-enriched breast cancer xenograft)
HCI-012 = test system: HCI-012 (organoid from a breast cancer xenograft)
MDA-MB-231 = test system: MDA-MB-231

CCOc1ccn(-c2ccc(F)cc2)c(=O)c1C(=O)Nc1ccc(Oc2ccnc(N)c2Cl)c(F)c1 [ASLAN002]
CTG-3D luminescence at 96 h
Conditions	12.5 pM	0.00025 µM	0.005 µM	0.1 µM	1 µM	10 µM	100 µM	625 fM
HCI-001, days in culture: 365	2.86	2.78	2.5	3.1	2.44	1.84	1.6	1.69
HCI-001, days in culture: 397	1.79	2.1	2.38	1.93	2.27	2.43	1.01	1.87
HCI-001, days in culture: 401	1.59	1.66	1.76	1.83	1.66	1.29	0.84	1.76
HCI-008, days in culture: 325	1.03	2.2	2.46	3.53	3.54	2.48	1.08	2.16
HCI-008, days in culture: 340	0.543	2.27	1.52	1.76	1.83	–	0.867	0.758
HCI-008, days in culture: 354	1.38	1.4	2.81	1.45	1.54	0.917	0.857	1.08
HCI-008, days in culture: 382	1.45	1.54	1.29	1.09	0.767	1.78	0.377	1.52
HCI-012, days in culture: 214	1.99	2.84	1.41	1.72	1.55	2.81	0.653	2.47
HCI-012, days in culture: 243	1.95	2.84	1.9	2.45	2.19	3.71	1.7	2.43
HCI-012, days in culture: 256	1.93	1.9	1.8	2.77	1.71	1.78	1.29	2.4
HCI-012, days in culture: 284	1.86	2.58	1.82	2.49	2.18	2.98	1.4	2.81

MDA-MB-231
Conditions	CTG-3D luminescence at 96 h
12.5 pM	5.15
0.00025 µM	5.18
0.005 µM	5.26
0.1 µM	5.15
1 µM	5.49
10 µM	4.89
100 µM	3.8
625 fM	5.36

C[C@@H](Nc1cc(F)cc(F)c1)c1cc(C(=O)N(C)C)cc2c(=O)cc(N3CCOCC3)oc12 [AZD-8186]
CTG-3D luminescence at 96 h
Conditions	12.5 pM	0.00025 µM	0.005 µM	0.1 µM	1 µM	10 µM	100 µM	625 fM
HCI-001, days in culture: 365	2.63	2.2	2.38	2.83	1.84	1.13	1.08	1.53
HCI-001, days in culture: 397	1.79	2.6	2.23	2.14	1.81	1.69	0.737	1.6
HCI-001, days in culture: 401	1.64	1.69	1.59	1.76	1.28	1.24	0.924	1.69
HCI-008, days in culture: 325	1.16	2.3	1.7	3.47	3.65	1.03	0.315	1.35
HCI-008, days in culture: 340	1.72	2.42	1.8	1.21	1.62	–	0.345	1.48
HCI-008, days in culture: 354	1.26	1.28	1.82	1.24	1.26	0.634	0.353	1.32
HCI-008, days in culture: 382	1.77	1.86	1.54	1.44	1.16	0.995	0.193	1.86
HCI-012, days in culture: 214	3.16	3.58	2.36	2.15	1.61	1.53	0.299	3
HCI-012, days in culture: 243	1.81	2.44	1.8	2.35	1.56	1.4	0.468	2.52
HCI-012, days in culture: 256	2.2	2.24	2.12	3.26	1.35	0.936	0.409	2.45
HCI-012, days in culture: 284	1.94	2.57	2.11	2.5	1.45	2.64	0.535	2.65

MDA-MB-231
Conditions	CTG-3D luminescence at 96 h
12.5 pM	5.61 and 5.06
0.00025 µM	5.71 and 5.14
0.005 µM	5.56 and 5.16
0.1 µM	5.39 and 4.98
1 µM	5.11 and 4.76
10 µM	4.68 and 4.38
100 µM	2.77 and 2.47
625 fM	5.47 and 5.15

Cc1c(CN2CCN(C(=O)[C@H](C)O)CC2)sc2c(N3CCOCC3)nc(-c3cnc(N)nc3)nc12 [apitolisib]
CTG-3D luminescence at 96 h
Conditions	12.5 pM	0.00025 µM	0.005 µM	0.1 µM	1 µM	10 µM	100 µM	625 fM
HCI-001, days in culture: 365	2.58	2.24	2.1	1.76	0.879	0.659	0.623	1.4
HCI-001, days in culture: 397	1.85	1.88	1.62	1.89	0.725	0.643	0.29	1.38
HCI-001, days in culture: 401	1.46	1.75	1.41	1.57	0.609	0.676	0.517	1.65
HCI-008, days in culture: 325	1.41	2	1.65	1.78	0.742	0.507	0.435	1.77
HCI-008, days in culture: 340	1.4	1.81	1.5	0.702	0.415	–	0.351	1.52
HCI-008, days in culture: 354	1.55	1.16	2.04	1.34	0.285	0.344	0.491	1.32
HCI-008, days in culture: 382	1.87	1.72	0.949	0.687	0.13	0.258	0.331	1.49
HCI-012, days in culture: 214	3.46	3.38	1.52	1.74	0.672	0.176	0.0363	3.26
HCI-012, days in culture: 243	2.34	2.6	2.13	1.48	0.554	0.118	0.0299	2.51
HCI-012, days in culture: 256	2.08	2.2	2.08	2.67	0.805	0.1	0.0191	2.05
HCI-012, days in culture: 284	2.16	2.93	1.47	1.97	0.681	0.102	0.0089	3.29

MDA-MB-231
Conditions	CTG-3D luminescence at 96 h
12.5 pM	5.6 and 5.03
0.00025 µM	5.7 and 4.98
0.005 µM	5.72 and 5.32
0.1 µM	5.01 and 4.5
1 µM	2.91 and 2.98
10 µM	2.31 and 2.38
100 µM	0.873 and 0.875
625 fM	5.53 and 5.09
